Assay results published in article PMC8300761, “In Vitro Antifungal Activity and Toxicity of Dihydrocarvone-Hybrid Derivatives against Monilinia fructicola” (Antibiotics, 2021).
Values after ≈ are worked out from the molar mass of the structure shown.

How the values were obtained:
[1] = tested on: Monilinia fructicola strain 2 (S2); experiment: radial mycelial growth test, M. fructicola strain 2 (S2); type: cell-based; conditions: PDA, 120 h at 24 °C in the dark, n = 6, read-out: EC50 ± SD, mycelial growth inhibition
Source text: (§1) Both strains (S1 and S2) of M. fructicola were kindly provided by the phytopathology laboratory of the Servicio Agrícola y Ganadero de Chile (SAG), Santiago, Chile. The isolate S1 was recovered from infected peach from commercial orchards in the O’Higgins region, Chile, and the isolate S2 was recovered from infected nectarines from commercial orchards in the province of Maipo, Metropolitan Region, Chile and identified to species level with a PCR assay developed by the molecular biology laboratory belonging to SAG; these were maintained on potato dextrose agar (PDA) and incubated for 120 h at 24 °C.
(§2) The antifungal activity of all dihidrocarvone-hybrid derivatives (2–9) against both strains of M. fructicola was determined by the radial test previously reported. The test compounds were dissolved in ethanol (5% v/v) and added to the potato dextrose agar medium (PDA) medium in the petri dishes to obtain a final concentration of 10, 25, 50, 150, and 250 µg/mL. The mycelial growth diameters were measured after 120 h of incubation at 24 °C in the dark, and the inhibition percentages were calculated with respect to the negative ethanol control. The commercial fungicides Mystic® 520 SC (Pyrimethanil 400 g/L, Trifloxystrobin 120 g/L) (Lot: PAIS004727; Bayer, Santiago, Chile) and BC-1000® (grapefruit seed and pulp extract (Citrus x paridisi), 50% w/v (500 g/L)) were used as positive controls and were measured under the same conditions as the compounds.
(§3) The results were expressed as the effective concentration (EC50) that reduced mycelial growth by 50%. This value was determined by regressing the values of the percentage inhibition of radial growth against the compound concentration values. The fit analysis was performed using the Origin Pro® V. 8.0 software (OriginLab Corporation, Northampton, Massachusetts, EE.UU). These experiments were performed in triplicate and each assay was performed twice (n = 6). Significant differences were determined using a one-way analysis of variance, followed by a pairwise comparison of means (LSD test; p < 0.05) (Microsoft Office Excel® 2016).

Artemia salina L. larvae = experiment: brine shrimp lethality test (BSLT); type: in vivo; conditions: for LD50 (BSLT): Artemia salina larvae, 24 h, probit analysis
Procedure: The assay was carried out according to the principle and protocol previously described. Briefly, Artemia salina L. eggs were inserted into a box containing seawater; the box was placed under a UV lamp; after 48 h, the eggs hatched into larvae and were ready for the test. All of the compounds were dissolved in methanol at final concentrations of 1000 to 10 µg/mL. After 24 h, the live and dead shrimp were counted. The experiment was conducted in triplicate. The median lethal concentrations (LD50) with 95% confidence intervals were determined using the Probit analysis method. For LC50 values, probit analysis was used with Minitab V. 15 software (Minitab® Statistical Software, State College, PA, USA).

[2] = tested on: Monilinia fructicola strain 1 (S1); experiment: radial mycelial growth test, M. fructicola strain 1 (S1); type: cell-based; conditions: PDA, 120 h at 24 °C in the dark; for EC50: Monilinia fructicola, 120 h, n = 6, read-out: EC50 ± SD, mycelial growth inhibition; for EC50 ± SD, mycelial growth inhibition: n = 6
Source text: as §1, §2, §3

[3] = tested on: both strains of M. fructicola; experiment: radial mycelial growth test, inhibition percentages over both strains; type: cell-based; conditions: Monilinia fructicola, range over strains 1 and 2, read-out: inhibition percentage of mycelial growth
Source text: as §1
as §2, with “The test compounds were dissolved in ethanol (5% v/v) and added to the potato dextrose agar medium (PDA) medium in the petri dishes to obtain a final concentration of 10, 25, 50, 150, and 250 µg/mL.” left out, “compounds. […]” for “compounds.”

SMILES | EC50 [1] [µg/mL] | LD50 (BSLT) (Artemia salina L. larvae) [µg/mL] | EC50 [2] [µg/mL] | EC50 ± SD, mycelial growth inhibition [2] [µg/mL] | inhibition at 150 µg/mL ([3]; 150 µg/mL) [%] | inhibition at 250 µg/mL ([3]; 250 µg/mL) [%] | times less toxic than the commercial control of M. fructicola (BSLT) (Artemia salina L. larvae; compared with the commercial control (Mystic 520 SC)) [times]
C=C(C)[C@@H]1CCC(C)C(=O)C1 (some centres unmarked) [Compound 1, Dihydrocarvone] | > 250 | 550 | > 250 |  |  |  | 
C=C(C)[C@@H]1CCC(C)C(=O)C1=Cc1ccccc1 (stereo partly drawn) [Compound 2, (3S)-2-benzylidene-3-isopropenyl-6-methylcyclohexanone] | > 250 | >1000 | > 250 |  |  |  | 
C=C(C)[C@@H]1CCC(C)C(=O)C1=Cc1cccc(OC)c1 (stereo partly drawn) [Compound 4, (3S)-3-isopropenyl-2-(3-methoxybenzylidene)-6-methylcyclohexanone] | 39.6 ± 1.1 (≈ 146 µM) | >1000 | 273.2 ± 0.9 (≈ 1010 µM) |  |  |  | 
C=C(C)[C@@H]1CCC(C)C(=O)C1=Cc1ccc(OC)cc1 (stereo partly drawn) [Compound 5, (3S)-3-isopropenyl-2-(4-methoxybenzylidene)-6-methylcyclohexanone] | 23.1 ± 1.2 (≈ 85.4 µM) | >1000 | > 250 |  |  |  | 
C=C(C)[C@@H]1CCC(C)C(=O)C1=Cc1ccc(OC)c(OC)c1 (stereo partly drawn) [Compound 6, (3S)-2-(3,4-dimethoxybenzylidene)-3-isopropenyl-6-methylcyclohexanone] | 47.7 ± 0.8 (≈ 159 µM) | 954 | > 250 |  |  |  | 
C=C(C)[C@@H]1CCC(C)C(=O)C1=Cc1ccc2c(c1)OCO2 (stereo partly drawn) [Compound 7, (3S)-2-(1,3-benzodioxol-5-ylmethylene)-3-isopropenyl-6-methylcyclohexanone] | 18.1 (≈ 63.7 µM) | 910 | 146 to 148 (≈ 513 to 521 µM) | 148.1 ± 1.4 (≈ 521 µM) |  |  | 
C=C(C)[C@@H]1CCC(C)C(=O)C1=Cc1cccc(O)c1 (stereo partly drawn) [Compound 8, (3S)-2-(3-hydroxybenzylidene)-3-isopropenyl-6-methylcyclohexanone] | 15.7 ± 1.3 (≈ 61.2 µM) | 890 | 146 to 148 (≈ 569 to 578 µM) | 145.9 ± 1.7 (≈ 569 µM) | 47 to 88 | 62 to 97 | 
C=C(C)[C@@H]1CCC(C)C(=O)C1=Cc1ccccc1OC (stereo partly drawn) [Compound 3, (3S)-3-isopropenyl-2-(2-methoxybenzylidene)-6-methylcyclohexanone] | 58 ± 0.7 (≈ 215 µM) | >1000 | > 250 |  |  |  | 
C=C(C)[C@@H]1CCC(C)C(=O)C1=Cc1ccc(O)cc1 (stereo partly drawn) [Compound 9, (3S)-2-(4-hydroxybenzylidene)-3-isopropenyl-6-methylcyclohexanone] | > 250 | 847 | > 250 |  |  |  | 80
